Like-named read-outs stand apart in the source and are kept apart here.

One may read the DC50 as the concentration giving 50% degradation. The Dmax is the largest share of the target that was removed.

The target of the test is T1, BRM (Homo sapiens, UniProt P51531).
T1 construct: In-Cell Western Screen of BRM Degradation in SW1573 Cells; endogenous in cells; host or cells: SW1573
Kind of test: In-cell Western screen of BRM degradation in SW1573 cells (Dmax and DC50). It counts as cell-based. The method in brief:
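BRM levels were read by LI-COR in-cell Western after two-channel (800/680 nm) immunostaining of fixed, Triton-permeabilised SW1573 cells.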

[1] abbreviates: BRM degradation, read-out: BRM DC50.
Where [2] appears, read: BRM degradation, SW1573 cells, read-out: DC50.
Where [3] appears, read: target protein degradation, read-out: BRM DC50.
[4] abbreviates: SW1573, % degraded, when tested at the top concentration of between 0.3 and 10 μM, read-out: BRM Dmax (%).

T1 sequence (P51531 whole entry): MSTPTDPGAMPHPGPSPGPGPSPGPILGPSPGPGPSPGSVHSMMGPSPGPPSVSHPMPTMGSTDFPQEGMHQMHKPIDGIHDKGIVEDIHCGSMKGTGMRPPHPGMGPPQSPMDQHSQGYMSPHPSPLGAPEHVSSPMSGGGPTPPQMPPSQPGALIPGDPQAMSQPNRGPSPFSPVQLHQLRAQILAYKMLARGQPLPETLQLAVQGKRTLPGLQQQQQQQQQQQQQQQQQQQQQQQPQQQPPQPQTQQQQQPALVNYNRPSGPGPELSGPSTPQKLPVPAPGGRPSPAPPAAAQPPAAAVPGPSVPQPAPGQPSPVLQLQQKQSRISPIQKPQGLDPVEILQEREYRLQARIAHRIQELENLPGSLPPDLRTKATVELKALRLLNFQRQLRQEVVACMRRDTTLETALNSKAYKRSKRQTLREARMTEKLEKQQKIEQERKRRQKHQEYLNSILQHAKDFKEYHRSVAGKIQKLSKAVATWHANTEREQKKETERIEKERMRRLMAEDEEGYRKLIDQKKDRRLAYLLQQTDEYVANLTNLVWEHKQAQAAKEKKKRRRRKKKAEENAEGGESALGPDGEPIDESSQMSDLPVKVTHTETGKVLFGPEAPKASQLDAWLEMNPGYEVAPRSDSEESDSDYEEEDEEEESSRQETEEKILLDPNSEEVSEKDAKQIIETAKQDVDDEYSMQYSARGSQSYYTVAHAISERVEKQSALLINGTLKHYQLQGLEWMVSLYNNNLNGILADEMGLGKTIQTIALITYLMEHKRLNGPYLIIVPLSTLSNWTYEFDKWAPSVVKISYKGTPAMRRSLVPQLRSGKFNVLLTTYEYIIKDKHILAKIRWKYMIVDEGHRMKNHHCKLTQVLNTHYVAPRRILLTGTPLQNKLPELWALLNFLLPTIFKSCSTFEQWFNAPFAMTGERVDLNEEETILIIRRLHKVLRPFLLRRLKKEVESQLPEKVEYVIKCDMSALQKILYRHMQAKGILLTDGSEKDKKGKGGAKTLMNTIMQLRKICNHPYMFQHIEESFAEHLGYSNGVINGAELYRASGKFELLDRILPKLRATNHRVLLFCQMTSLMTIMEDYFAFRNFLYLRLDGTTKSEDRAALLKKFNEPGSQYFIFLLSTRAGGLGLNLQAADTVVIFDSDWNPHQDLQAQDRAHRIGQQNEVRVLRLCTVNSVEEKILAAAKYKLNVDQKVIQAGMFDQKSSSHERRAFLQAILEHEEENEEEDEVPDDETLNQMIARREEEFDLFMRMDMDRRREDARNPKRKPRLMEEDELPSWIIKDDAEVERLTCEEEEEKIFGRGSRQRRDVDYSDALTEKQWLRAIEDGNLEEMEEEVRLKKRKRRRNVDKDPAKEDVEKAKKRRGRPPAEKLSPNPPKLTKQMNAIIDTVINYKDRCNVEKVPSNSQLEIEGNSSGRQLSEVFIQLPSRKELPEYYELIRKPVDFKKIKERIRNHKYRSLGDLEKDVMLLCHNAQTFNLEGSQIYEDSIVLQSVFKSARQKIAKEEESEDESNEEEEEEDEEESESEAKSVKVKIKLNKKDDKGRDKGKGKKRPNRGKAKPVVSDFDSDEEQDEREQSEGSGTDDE

Consider `Cc1ncsc1-c1ncc([C@H](C)NC(=O)[C@@H]2C[C@@H](O)CN2C(=O)C(c2cc(OCCN3CCC(O[C@H]4C[C@H](Oc5cc(N6C7CCC6CN(c6cc(-c8ccccc8O)nnc6N)C7)ccn5)C4)CC3)no2)C(C)C)cc1F` (stereo partly drawn) [compound 500, (2S,4R)-1-(2-(3-(2-(4-((1r,3r)-3-((4-(3-(3-amino-6-(2-hydroxyphenyl)pyridazin-4-yl)-3,8-diazabicyclo[3.2.1]octan-8-yl)pyridin-2-yl)oxy)cyclobutoxy)piperidin-1-yl)ethoxy)isoxazol-5-yl)-3-methylbutanoyl)-N-((S)-1-(5-fluoro-6-(4-methylthiazol-5-yl)pyridin-3-yl)ethyl)-4-hydroxypyrrolidine-2-carboxamide], for which the DC50 under setting [1] is more than 0.03 µM.
As to `Cc1cc([C@@H](C(=O)N2C[C@H](O)C[C@H]2C(=O)N[C@@H](C)c2ccc(-c3scnc3C)cc2)[C@H](C)COCCOc2cc(N3C4CCC3CN(c3cc(-c5ccccc5O)nnc3N)C4)ccn2)on1` [compound 513, (2S,4R)-1-((2S,3S)-4-(2-((4-(3-(3-amino-6-(2-hydroxyphenyl)pyridazin-4-yl)-3,8-diazabicyclo[3.2.1]octan-8-yl)pyridin-2-yl)oxy)ethoxy)-3-methyl-2-(3-methylisoxazol-5-yl)butanoyl)-4-hydroxy-N-((S)-1-(4-(4-methylthiazol-5-yl)phenyl)ethyl)pyrrolidine-2-carboxamide], the DC50 under setting [1] is more than 0.03 µM.
Take `Cc1ncsc1-c1ccc([C@H](C)NC(=O)[C@@H]2C[C@@H](O)CN2C(=O)[C@H](c2cc(OCCC3CCN(C[C@H]4C[C@H](N5CCC(CN6CCOC7(CCN(c8cc(-c9ccccc9O)nnc8N)CC7)C6)CC5)C4)CC3)no2)C(C)C)cc1` [compound 597, (2S,4R)-1-((S)-2-(3-(2-(1-(((1r,3S)-3-(4-((9-(3-amino-6-(2-hydroxyphenyl)pyridazin-4-yl)-1-oxa-4,9-diazaspiro[5.5]undecan-4-yl)methyl)piperidin-1-yl)cyclobutyl)methyl)piperidin-4-yl)ethoxy)isoxazol-5-yl)-3-methylbutanoyl)-4-hydroxy-N-((S)-1-(4-(4-methylthiazol-5-yl)phenyl)ethyl)pyrrolidine-2-carboxamide]: the Dmax (BRM degradation, SW1573 cells, Table 2D, read-out: **Dmax (%) (% degraded)) is more than 75%. Further, the DC50 (BRM degradation, SW1573 cells, Table 2D, read-out: *DC50) lay within 0.01 to 0.03 µM.
With `Cc1ncsc1-c1ccc([C@H](C)NC(=O)[C@@H]2C[C@@H](O)CN2C(=O)[C@@H](c2cc(N3CCC4(CCN(CC5CCN(C[C@H]6C[C@H](Oc7cc(N8C9CCC8CN(c8cc(-c%10ccccc%10O)nnc8N)C9)ccn7)C6)CC5)CC4)CC3)no2)C(C)C)cc1` [compound 689, (2S,4R)-1-((2R)-2-(3-(9-((1-(((1r,3r)-3-((4-(3-(3-amino-6-(2-hydroxyphenyl)pyridazin-4-yl)-3,8-diazabicyclo[3.2.1]octan-8-yl)pyridin-2-yl)oxy)cyclobutyl)methyl)piperidin-4-yl)methyl)-3,9-diazaspiro[5.5]undecan-3-yl)isoxazol-5-yl)-3-methylbutanoyl)-4-hydroxy-N-((S)-1-(4-(4-methylthiazol-5-yl)phenyl)ethyl)pyrrolidine-2-carboxamide], the DC50 under setting [2] was less than 0.0025 µM. In addition, for the setting “BRM degradation, SW1573 cells, read-out: Dmax (% degraded)”, the Dmax was more than 75%.
In the case of `Cc1ncsc1-c1ccc(CNC(=O)[C@@H]2C[C@@H](O)CN2C(=O)[C@H](C(C)C)N2Cc3ccccc3C2=O)c(OCCOCCOCCn2cc(-c3cc(-c4ccccc4O)nnc3N)cn2)c1` [compound 21, (2S,4R)-N-(2-(2-(2-(2-(4-(3-amino-6-(2-hydroxyphenyl)pyridazin-4-yl)-1H-pyrazol-1-yl)ethoxy)ethoxy)ethoxy)-4-(4-methylthiazol-5-yl)benzyl)-4-hydroxy-1-((S)-3-methyl-2-(1-oxoisoindolin-2-yl)butanoyl)pyrrolidine-2-carboxamide], for the setting “BRM degradation, SW1573 cells, when tested at the top concentration of between 0.3 and 10 μM, read-out: Dmax (%) (% degraded)”, the Dmax was less than 50%.
As for `Cc1cc([C@H](C(=O)N2C[C@H](O)C[C@H]2C(=O)N[C@@H](C)c2ccc(-c3scnc3C)cc2)[C@@H](C)CO[C@H]2C[C@@H](Oc3cc(N4C5CCC4CN(c4cc(-c6ccccc6O)nnc4N)C5)ccn3)C2)on1` [compound 482, (2S,4R)-1-((2R,3R)-4-((1s,3S)-3-((4-(3-(3-amino-6-(2-hydroxyphenyl)pyridazin-4-yl)-3,8-diazabicyclo[3.2.1]octan-8-yl)pyridin-2-yl)oxy)cyclobutoxy)-3-methyl-2-(3-methylisoxazol-5-yl)butanoyl)-4-hydroxy-N-((S)-1-(4-(4-methylthiazol-5-yl)phenyl)ethyl)pyrrolidine-2-carboxamide], under setting [3], the DC50 is more than 0.03 µM.
Consider `Cc1ncsc1-c1ccc([C@H](C)NC(=O)[C@@H]2C[C@@H](O)CN2C(=O)[C@@H](c2cc(OCC#Cc3ncc(O[C@H]4C[C@H](Oc5cc(N6C7CCC6CN(c6cc(-c8ccccc8O)nnc6N)C7)ccn5)C4)cn3)no2)C(C)C)cn1` [compound 400, (2S,4R)-1-((2R)-2-(3-((3-(5-((1r,3R)-3-((4-(3-(3-amino-6-(2-hydroxyphenyl)pyridazin-4-yl)-3,8-diazabicyclo[3.2.1]octan-8-yl)pyridin-2-yl)oxy)cyclobutoxy)pyrimidin-2-yl)prop-2-yn-1-yl)oxy)isoxazol-5-yl)-3-methylbutanoyl)-4-hydroxy-N-((S)-1-(6-(4-methylthiazol-5-yl)pyridin-3-yl)ethyl)pyrrolidine-2-carboxamide], for which the Dmax under setting [4] was more than 75%. Moreover, under setting [3], the DC50 was less than 0.0025 µM.
Regarding `Cc1nccn1-c1ccc([C@H](C)NC(=O)[C@@H]2C[C@@H](O)CN2C(=O)[C@@H](c2cc(OCC#Cc3ncc(O[C@H]4C[C@H](Oc5cc(N6C7CCC6CN(c6cc(-c8ccccc8O)nnc6N)C7)ccn5)C4)cn3)no2)C(C)C)cc1` [compound 394, (2S,4R)-1-((2R)-2-(3-((3-(5-((1r,3R)-3-((4-(3-(3-amino-6-(2-hydroxyphenyl)pyridazin-4-yl)-3,8-diazabicyclo[3.2.1]octan-8-yl)pyridin-2-yl)oxy)cyclobutoxy)pyrimidin-2-yl)prop-2-yn-1-yl)oxy)isoxazol-5-yl)-3-methylbutanoyl)-4-hydroxy-N-((S)-1-(4-(2-methyl-1H-imidazol-1-yl)phenyl)ethyl)pyrrolidine-2-carboxamide], under setting [4], the Dmax was more than 75%. Also, under setting [3], the DC50 was less than 0.0025 µM.
In the case of `CC(C)[C@@H](C(=O)N1C[C@H](O)C[C@H]1C(=O)N[C@@H](C)c1ccc(-n2ccnn2)cc1)c1cc(OCCN2CCN(CCOc3cc(N4C5CCC4CN(c4cc(-c6ccccc6O)nnc4N)C5)ccn3)CC2)no1` [compound 293, (2S,4R)-N-((S)-1-(4-(1H-1,2,3-triazol-1-yl)phenyl)ethyl)-1-((2R)-2-(3-(2-(4-(2-((4-(3-(3-amino-6-(2-hydroxyphenyl)pyridazin-4-yl)-3,8-diazabicyclo[3.2.1]octan-8-yl)pyridin-2-yl)oxy)ethyl)piperazin-1-yl)ethoxy)isoxazol-5-yl)-3-methylbutanoyl)-4-hydroxypyrrolidine-2-carboxamide], the DC50 under setting [2] was 0.0025 to 0.01 µM. Moreover, the Dmax (BRM degradation, SW1573 cells, tested at the top concentration of between 0.3 and 10 μM, read-out: Dmax (%) (% degraded)) is more than 75%.
`Cc1nccn1-c1ccc([C@H](C)NC(=O)[C@@H]2C[C@@H](O)CN2C(=O)[C@H](c2cc(OCCN3CCC(O[C@H]4C[C@H](Oc5cc(N6C7CCC6CN(c6cc(-c8ccccc8O)nnc6N)C7)ccn5)C4)CC3)no2)C(C)C)cn1` [compound 397, (2S,4R)-1-((2S)-2-(3-(2-(4-((1r,3S)-3-((4-(3-(3-amino-6-(2-hydroxyphenyl)pyridazin-4-yl)-3,8-diazabicyclo[3.2.1]octan-8-yl)pyridin-2-yl)oxy)cyclobutoxy)piperidin-1-yl)cthoxy)isoxazol-5-yl)-3-methylbutanoyl)-4-hydroxy-N-((S)-1-(6-(2-methyl-1H-imidazol-1-yl)pyridin-3-yl)ethyl)pyrrolidine-2-carboxamide]: the half-maximal degradation concentration (DC50) under setting [3] is more than 0.03 µM.

Source of the values: patent US12539292B2, “BRM targeting compounds and associated methods of use” (Arvinas Operations, Inc., priority 2018, dated 2026).
